We go through two compounds from PMC12073189, “Synthesis and Evaluation of a Novel Zuranolone Analog with High GABAA Receptor PAM Activity and Excellent Pharmacokinetic Profiles” (Molecules, 2025).

Where two headings read alike, the source gives them in different places.

Series [1] addresses T1, α4β3δ GABAA receptor (Homo sapiens, UniProt P28472+P48169).
T1 construct: expressed in transfected cells; host or cells: CHO cells (transient expression)
The series is described as follows: Whole-cell electrophysiology of GABA-evoked currents, CHO cells. The format is cell-based. The method, then: The α1β2γ2 and α4β3δ GABAA receptor subtypes, representing synaptic and extrasynaptic subunit compositions in neurons, are widely utilized for screening new NAS drugs. In this study, a preliminary SAR study was conducted on a series of Zuranolone analogs using the LogP values predicted by ADMETlab3.0 software, recombinant human GABAA receptor cell lines, and in vitro liver microsome stability assays. The results are summarized in Table 1, Table 2, and Table 3, respectively.
The effects of Zuranolone and synthetic analogs on GABA-evoked currents were assessed in LTK cells stably expressing α1β2γ2 GABAA receptor subunits (n = 3) or CHO cells transiently expressing α4β3δ receptors (n = 3). Whole-cell mode recordings were conducted using the HEKA EPC-10 amplifier and analyzed with PatchMaster software (version 2x90, HEKA Elektronik, Lambrecht, Germany). High-throughput whole-cell recordings were performed using the Q-Patch method from Sophion. Test substances were dissolved in DMSO (dimethyl sulfoxide) to prepare 10 mmol/L stock solutions, then diluted with perfusion bath solution to concentrations ranging from 0.01 to 10 μmol/L. In this experiment, the effects of Zuranolone and its synthetic analogs on GABA-induced currents were examined in the presence of a submaximal agonist concentration at 1 μmol/L GABA (EC20). Cells were pre-incubated with increasing doses of test substances for 30 s, followed by 2 s of GABA stimulation, and currents were recorded. The maximum efficacy (Emax) of the GABAA receptor is expressed with the current induced by 1 μmol/L GABA taken as 100%, and the percentage after treatment with the test compound is calculated. The EC50 values are determined by fitting the three concentration–response curves recorded from three cells.

Series [2] can be described thus: Liver microsome metabolic stability (RLM). The format is in vitro ADME, rat. Further details: microsomal CLint at 1 μmol/L: unit not given here. Conditions: for half-life at 1 μmol/L: read-out: RLM T1/2. As for the experimental part:
(§1) We quantified S1–S15 and Zuranolone using a UPLC-MS/MS (Agilent 1290 Infinity II UHPLC (Agilent Technologies, Santa Clara, CA, USA) coupled with a QTRAP 5500 MS/MS (ESI source) (SCIEX, Redwood City, CA, USA for MS/MS). The method assessed the content level of S9 and Zuranolone in microsome metabolism and in rat brain tissue and plasma. An ACQUITY UPLC Peptide BEH C18 column (Waters; 50 × 2.1 mm, 1.7 μm; 60 °C; Waters Corporation, Milford, MA, USA) was used with a mobile phase of 0.02% propionic acid in water (A) and acetonitrile (B). The gradient elution of the mobile phase B is carried out as follows: it is 10% from 0 to 0.5 min, 90% from 0.8 to 2.5 min, and 10% from 2.8 to 3.5 min, with a flow rate of 0.40 mL/min. Quantitative analysis was performed on a QTRAP 5500 MS (SCIEX, Redwood City, CA, USA) in positive ionization mode with MRM (multiple reaction monitoring), using progesterone-d9 as the internal standard. MRM transitions and parameters were optimized for each analyte, with collision energies of 25 V (S1–S15), 23 V (Zuranolone), and 30 V (IS), and declustering potentials of 80 V (S1–S15), 90 V (Zuranolone), and 180 V (IS). Other conditions were as follows: curtain gas 10 psi, collision gas ‘medium’, ion spray voltage 5500 V, temperature 500 °C, and ionization source gases 1 and 2 at 50 psi.
(§2) To evaluate the metabolic stability of compounds S1–S15 and Zuranolone in RLM and HLM, we designed the following in vitro liver microsome metabolism assay protocol. In a 1.5 mL centrifuge tube, sequentially add 173 μL of PBS (0.1 M, pH 7.4), 5 μL of liver microsomes (20 mg/mL), and 2 μL of the test compound (100 μmol/L). After thorough mixing, pre-incubate at 37 °C for 10 min. Subsequently, add 20 μL of NADPH to initiate the metabolism, with a parallel control without NADPH, to validate the background signal. Samples were collected at 0, 5, 10, 20, 30, and 60 min post-reaction initiation. At each designated time point, we quenched the reaction with ice-cold acetonitrile (600 μL). After centrifuging the mixture, we analyzed the supernatant using UPLC-MS/MS. For data analysis, the compound concentration at 0 min was set as 100%, with concentrations at subsequent time points expressed as residual percentages relative to the initial value, and the in vitro half-life (T1/2) and intrinsic clearance (CLint) were calculated.
On the technique in general: Liver microsomes are vesicles of endoplasmic reticulum, rich in cytochrome P450 enzymes.

Series [3] can be described thus: Liver microsome metabolic stability (HLM). The format is in vitro ADME, human. Further details: microsomal CLint at 1 μmol/L: unit not given here. As to conditions: for half-life at 1 μmol/L: read-out: HLM T1/2. The method, then:
as §1, §2

Series [4] in a line: Plasma pharmacokinetic study in rats. Format: in vivo, rat. Conditions: for AUC(0-t) / C0 / half-life / Cmax / Tmax: rat plasma, n = 6; for bioavailability / Tmax: rat, plasma; for bioavailability: oral, 24.4 μmol/kg, i.g. 24.4 vs i.v. 6.1 μmol/kg, read-out: F (oral absolute bioavailability). The method, then: as §1
Zuranolone was solubilized in 5% DMSO with solutol HS 15 in saline. S9 was solubilized in 10% DMSA with 30% SBECD (Zibo Qianhui Biological Technology Co., Ltd., Zibo, China) in saline. After fasting for 12 h, rats (n = 6 per group) were administered Zuranolone and S9 intragastrically (i.g.) at a dose of 24.4 μmol/kg, and intravenously (i.v.) at 6.1 μmol/kg. Blood samples (200 μL) were collected into 1.5 mL tubes containing heparin at 15 min, 30 min, 1, 2, 3, 4, 6, 8, 12, 24, 48, and 96 h after i.g. or at 5, 15, 30 min, and 1, 2, 3, 4, 6, 8, 12, 24, 48, 96 h after i.v. Plasma was separated by centrifugation for 5 min (8000 rpm, 4 °C) and stored at −80 °C immediately.
Experimental data were analyzed by GraphPad Prism software 9.0 and presented as means ± SD. Statistical differences were determined by one-way ANOVA followed by Dunnett’s post-hoc test, with p < 0.05 considered statistically significant. Main pharmacokinetic parameters were calculated using Phoenix WinNonlin 8.1 (non-compartmental model), and the absolute bioavailability of S9 was determined by the following formula: (AUC i.g. (0–t) × dose i.v.)/(AUC i.v. (0–t) × dose i.g.) × 100%.

The mark [5] stands for this setting: iv, 6.1 umol/kg, i.v. 6.1 μmol/kg.
The mark [6] stands for this setting: po, 24.4 umol/kg, i.g. 24.4 μmol/kg.

T1 sequence (P48169 36-554): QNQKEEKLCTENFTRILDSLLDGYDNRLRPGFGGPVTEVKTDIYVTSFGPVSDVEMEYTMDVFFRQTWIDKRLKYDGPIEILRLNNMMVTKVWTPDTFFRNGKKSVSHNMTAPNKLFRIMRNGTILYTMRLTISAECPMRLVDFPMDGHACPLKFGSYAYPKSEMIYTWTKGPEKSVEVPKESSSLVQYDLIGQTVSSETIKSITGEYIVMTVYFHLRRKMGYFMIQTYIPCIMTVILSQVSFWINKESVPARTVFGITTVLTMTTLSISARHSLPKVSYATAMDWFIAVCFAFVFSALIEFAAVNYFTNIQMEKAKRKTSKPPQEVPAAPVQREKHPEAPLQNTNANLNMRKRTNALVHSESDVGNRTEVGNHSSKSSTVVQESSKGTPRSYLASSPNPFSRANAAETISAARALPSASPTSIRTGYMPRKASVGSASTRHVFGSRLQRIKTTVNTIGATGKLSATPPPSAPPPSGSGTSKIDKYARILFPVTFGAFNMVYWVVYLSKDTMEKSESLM
T1 sequence (P28472 26-473): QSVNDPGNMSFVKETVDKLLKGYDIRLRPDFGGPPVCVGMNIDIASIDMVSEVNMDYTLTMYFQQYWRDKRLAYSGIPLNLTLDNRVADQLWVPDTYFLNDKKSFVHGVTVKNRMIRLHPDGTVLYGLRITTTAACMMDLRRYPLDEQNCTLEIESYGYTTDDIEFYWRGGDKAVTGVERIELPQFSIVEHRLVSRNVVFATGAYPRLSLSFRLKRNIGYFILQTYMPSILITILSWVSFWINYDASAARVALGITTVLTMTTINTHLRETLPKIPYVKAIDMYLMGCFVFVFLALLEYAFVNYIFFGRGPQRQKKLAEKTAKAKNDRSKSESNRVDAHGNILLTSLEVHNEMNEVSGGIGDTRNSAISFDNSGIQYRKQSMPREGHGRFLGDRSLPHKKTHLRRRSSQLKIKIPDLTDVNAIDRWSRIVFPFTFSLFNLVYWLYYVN
T1 sequence (O14764 25-452 partner): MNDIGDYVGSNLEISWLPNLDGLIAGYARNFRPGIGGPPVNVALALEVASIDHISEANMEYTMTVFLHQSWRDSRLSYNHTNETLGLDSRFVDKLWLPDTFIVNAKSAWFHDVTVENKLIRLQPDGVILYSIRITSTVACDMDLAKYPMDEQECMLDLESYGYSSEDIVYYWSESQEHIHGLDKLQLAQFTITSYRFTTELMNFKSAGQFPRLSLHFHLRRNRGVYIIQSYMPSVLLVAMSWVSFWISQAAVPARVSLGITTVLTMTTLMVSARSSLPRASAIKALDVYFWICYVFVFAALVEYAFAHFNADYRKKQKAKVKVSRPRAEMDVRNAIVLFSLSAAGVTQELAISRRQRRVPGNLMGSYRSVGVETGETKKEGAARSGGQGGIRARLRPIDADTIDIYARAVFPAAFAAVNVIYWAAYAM

Consider `C[C@@]1(O)CC[C@H]2[C@H](CC[C@@H]3[C@@H]2CC[C@]2(C)[C@@H](C(=O)Cn4cnn(-c5ccnc(OCC(F)(F)F)c5)c4=O)CC[C@@H]32)C1` [S9], for which the EC50 (as a rule, the concentration at which the effect is half-maximal) in series [1] (CHO cells, 1 μmol/L GABA (EC20), n = 3, read-out: α4β3δ EC50) was 34 ± 10 nM. Moreover, in series [1] (CHO cells, current induced by 1 μmol/L GABA = 100%, n = 3), the Emax (usually the maximal effect, on the per cent scale that the assay sets) worked out at 967 ± 118%. Moreover, in series [1] (extrasynaptic GABAA receptors), the “efficacy as % of that of Zuranolone” value was 71% and the “potency as % of that of Zuranolone” value came out at 270%. In series [2] (RLM), the “fold longer T1/2 than Zuranolone” value turned out to be 4 fold and the “fold lower CLint than Zuranolone” value is recorded as 6.5 fold. In addition, the half-life at 1 μmol/L in series [2] (pH 7.4, rat liver microsomes) was 3.1 h. Further, in series [2] (pH 7.4, rat liver microsomes, read-out: RLM intrinsic clearance (CLint)), the microsomal CLint at 1 μmol/L worked out at 8000. Besides, in series [3] (HLM), the “fold longer T1/2 than Zuranolone” value worked out at 1.2 fold and the “fold lower CLint than Zuranolone” value was found to be 1.2 fold. In series [3] (pH 7.4, human liver microsomes), the microsomal CLint at 1 μmol/L worked out at 9000 and the half-life at 1 μmol/L was determined as 2.57 h. Moreover, in series [4] (S28 previously reported ref 25), the “increase in AUC compared to S28” value was “over 2 fold” and the “increase in T1/2 compared to S28” value is given as “over 2 fold”. In series [4] (setting [5]), the AUC(0-t) (in general, exposure summed from dosing to a finite time, without extrapolation to infinity) worked out at 24.2 µM·h; the C0 worked out at 2.86 ± 0.223 µM; the half-life is 16.4 ± 0.56 h. Moreover, in series [4] (setting [6]), the AUC(0-t) turned out to be 80.4 µM·h; the concentration peaked (Cmax) at 3.6 ± 0.541 µM; the half-life was 19.8 ± 1.5 h; the Tmax – broadly, the time at which the peak concentration occurs – was around 3.7 h. The bioavailability (in general, dose-corrected exposure relative to a reference, in per cent) in series [4] (rats) amounted to 82.9%. In addition, in series [4] (rats, i.g. 24.4 μmol/kg), the “AUC0–t as fold of Zuranolone” value is on record as “approximately 6.7 fold” and the “T1/2 as fold of Zuranolone” value is given as “approximately 5.2 fold”. In series [4] (rats, i.v. 6.1 μmol/kg), the “AUC0–t as fold of Zuranolone” value is “approximately 4.7 fold” and the “T1/2 as fold of Zuranolone” value is recorded as “approximately 6.6 fold”. In series [4] (rats, route not given), the “AUC higher than Zuranolone” value was found to be 6 fold and the “plasma T1/2 longer than Zuranolone” value amounted to 5 fold.
As for `C[C@@]1(O)CC[C@H]2[C@H](CC[C@@H]3[C@@H]2CC[C@]2(C)[C@@H](C(=O)Cn4cc(C#N)cn4)CC[C@@H]32)C1` [Zuranolone], the EC50 in series [1] was determined as 93 ± 10 nM. For the same compound, the half-life at 1 μmol/L in series [2] (pH 7.4, rat liver microsomes) was determined as 0.8 h. Moreover, the half-life at 1 μmol/L in series [3] (pH 7.4, human liver microsomes) is 2.07 h. In series [4] (setting [5]), this compound gave an AUC(0-t) of 5.18 ± 1.73 µM·h, a C0 of 3.43 ± 1.74 µM and a half-life of 2.5 ± 1.3 h. In addition, in series [4] (setting [6]), the AUC(0-t) was 12 µM·h, the Cmax (usually the peak of the concentration-time curve) worked out at 2.28 ± 0.554 µM, the half-life is 3.8 ± 1.7 h and the Tmax was around 1.2 h. In addition, the bioavailability in series [4] (rats) was 57.7%.
